From patent US10745429B2, “Phospholidines that are Bcl family antagonists for use in clinical management of conditions caused or mediated by senescent cells and for treating cancer” (Unity Biotechnology, Inc., priority 2018, dated 2020)

What was measured:
[1] = system: 3MR and INK-ATTAC mice exposed to cigarette smoke; assay: Cigarette smoke induced COPD model, pulse oximetry; assay type: in vivo, mouse; conditions: after two months of cigarette smoke exposure, compared with untreated controls; FIG. 8
Procedure: As a model for chronic obstructive pulmonary disease (COPD), mice were exposed to cigarette smoke.
The effect of a senolytic agent on the mice exposed to smoke is assessed by senescent cell clearance, lung function, and histopathology.
The mice used in this study include the 3MR strain, described in US 2017/0027139 A1 and in Demaria et al., Dev Cell. 2014 Dec. 22; 31(6): 722-733. The 3MR mouse has a transgene encoding thymidine kinase that converts the prodrug ganciclovir (GCV) to a compound that is lethal to cells. The enzyme in the transgene is placed under control of the p16 promoter, which causes it to be specifically expressed in senescent cells. Treatment of the mice with GCV eliminates senescent cells.
Other mice used in this study include the INK-ATTAC strain, described in US 2015/0296755 A1 and in Baker et al., Nature 2011 Nov. 2; 479(7372):232-236. The INK-ATTAC mouse has a transgene encoding switchable caspase 8 under control of the p16 promoter. The caspase 8 can be activated by treating the mice with the switch compound AP20187, whereupon the caspase 8 directly induces apoptosis in senescent cells, eliminating them from the mouse.
To conduct the experiment, six-week-old 3MR (n=35) or INK-ATTAC (n=35) mice were chronically exposed to cigarette smoke generated from a Teague TE-10 system, an automatically-controlled cigarette smoking machine that produces a combination of side-stream and mainstream cigarette smoke in a chamber, which is transported to a collecting and mixing chamber where varying amounts of air is mixed with the smoke mixture. The COPD protocol was adapted from the COPD core facility at Johns Hopkins University (Rangasamy et al., 2004, J. Clin. Invest. 114:1248-1259; Yao et al., 2012, J. Clin. Invest. 122:2032-2045).
Mice received a total of 6 hours of cigarette smoke exposure per day, 5 days a week for 6 months. Each lighted cigarette (3R4F research cigarettes containing 10.9 mg of total particulate matter (TPM), 9.4 mg of tar, and 0.726 mg of nicotine, and 11.9 mg carbon monoxide per cigarette [University of Kentucky, Lexington, Ky.]) was puffed for 2 seconds and once every minute for a total of 8 puffs, with the flow rate of 1.05 L/min, to provide a standard puff of 35 cm3. […] The smoke chamber atmosphere was monitored for total suspended particulates (80-120 mg/m3) and carbon monoxide (350 ppm). […]
After two months of cigarette smoke (CS) exposure, lung function was assessed by monitoring oxygen saturation using the MouseSTAT PhysioSuite™ pulse oximeter (Kent Scientific). […] Mice were monitored for 30 seconds and the average peripheral capillary oxygen saturation (SpO2) measurement over this duration was calculated.

[2] = system: cancer cells in human patients; conditions: cited from earlier work
[3] = system: primary cells from patients with B-cell malignancies; conditions: in vitro studies; cited from earlier work
[4] = system: LDLR-/- mice fed a high fat diet; assay: Atherosclerosis model, LDLR-/- mice on a high fat diet, systemic treatment; assay type: in vivo, mouse
Procedure: This example illustrates the testing of an MDM2 inhibitor in a mouse model for treatment of atherosclerosis. The test compounds are administered systemically rather than locally. The model is done in an LDLR−/− strain of mice, which are deficient in the receptor for low-density lipoprotein. The experiments described here can be adapted mutatis mutandis to test and develop other types of inhibitors for use in clinical therapy.
Two groups of LDLR−/− mice (10 weeks) are fed a high fat diet (HFD) (Harlan Teklad TD.88137) having 42% calories from fat, beginning at Week 0 and throughout the study. Two groups of LDLR−/− mice (10 weeks) are fed normal chow (−HFD). From weeks 0-2, one group of HFD mice and −HFD mice are treated with Nutlin-3A (25 mg/kg, intraperitoneally). One treatment cycle is 14 days treatment, 14 days off. Vehicle is administered to one group of HFD mice and one group of −HFD mice. At week 4 (timepoint 1), one group of mice are sacrificed and to assess presence of senescent cells in the plaques. For the some of the remaining mice, Nutlin-3A and vehicle administration is repeated from weeks 4-6. At week 8 (timepoint 2), the mice are sacrificed and to assess presence of senescent cells in the plaques. The remaining mice are treated with Nutlin-3A or vehicle from weeks 8-10. At week 12 (timepoint 3), the mice are sacrificed and to assess the level of plaque and the number of senescent cells in the plaques.
Plasma lipid levels were measured in LDLR−/− mice fed a HFD and treated with Nutlin-3A or vehicle at timepoint 1 as compared with mice fed a −HFD (n=3 per group). Plasma was collected mid-afternoon and analyzed for circulating lipids and lipoproteins.
At the end of timepoint 1, LDLR−/− mice fed a HFD and treated with Nutlin-3A or vehicle were sacrificed (n=3, all groups), and the aortic arches were dissected for RT-PCR analysis of SASP factors and senescent cell markers. Values were normalized to GAPDH and expressed as fold-change versus age-matched, vehicle-treated LDLR−/− mice on a normal diet.
At the end of timepoint 2, LDLR−/− mice fed a HFD and treated with Nutlin-3A or vehicle (n=3 for all groups) were sacrificed, and aortic arches were dissected for RT-PCR analysis of SASP factors and senescent cell markers. Values were normalized to GAPDH and expressed as fold-change versus age-matched, vehicle-treated LDLR−/− mice on a normal diet.
At the end of timepoint 3, LDLR−/− mice fed a HFD and treated with Nutlin-3A or vehicle (n=3 for all groups) were sacrificed, and aortas were dissected and stained with Sudan IV to detect the presence of lipid. Body composition of the mice was analyzed by MRI, and circulating blood cells were counted by Hemavet™.

[5] = system: C57BL/6J mice with osteoarthritis induced by ACL surgery; assay: Osteoarthritis model: anterior cruciate ligament surgery, intra-articular treatment; assay type: in vivo, mouse
Procedure: The model was implemented as follows. C57BL/6J mice underwent surgery to cut the anterior cruciate ligament of one rear limb to induce osteoarthritis in the joint of that limb. During week 3 and week 4 post-surgery, the mice were treated with 5.8 μg of Nutlin-3A (n=7) per operated knee by intra-articular injection, q.o.d. for 2 weeks. At the end of 4 weeks post-surgery, joints of the mice were monitored for presence of senescent cells, assessed for function, monitored for markers of inflammation, and underwent histological assessment.
Two control groups of mice were included in the studies performed: one group comprising C57BL/6J or 3MR mice that had undergone a sham surgery (n=3) (i.e., surgical procedures followed except for cutting the ACL) and intra-articular injections of vehicle parallel to the GCV (ganciclovir) treated group; and one group comprising C57BL/6J or 3MR mice that had undergone an ACL surgery and received intra-articular injections of vehicle (n=5) parallel to the GCV-treated group. RNA from the operated joints of mice from the Nutlin-3A treated mice was analyzed for expression of SASP factors (mmp3, IL-6) and senescence markers (p16). qRT-PCR was performed to detect mRNA levels.
Function of the limbs was assessed 4 weeks post-surgery by a weight bearing test to determine which leg the mice favored. The mice were allowed to acclimate to the chamber on at least three occasions prior to taking measurements. Mice were maneuvered inside the chamber to stand with one hind paw on each scale. The weight that was placed on each hind limb was measured over a three second period. At least three separate measurements were made for each animal at each time point. The results were expressed as the percentage of the weight placed on the operated limb versus the contralateral unoperated limb.

CC1(C)CCC(c2ccc(Cl)cc2)=C(CN2CCN(c3ccc(C(=O)NS(=O)(=O)c4ccc(N[C@H](CCN5CCOCC5)CSc5ccccc5)c(S(=O)(=O)C(F)(F)F)c4)cc3)CC2)C1 [ABT-263]
peripheral capillary oxygen saturation (SpO2) levels [1]: statistically significant increases

CN(C)CC[C@H](CSc1ccccc1)Nc1ccc(S(=O)(=O)NC(=O)c2ccc(N3CCN(Cc4ccccc4-c4ccc(Cl)cc4)CC3)cc2)cc1[N+](=O)[O-] [ABT-737]
efficacy against cancer cells in human patients [2]: effective against some types of cancer cells | sensitivity of primary cells from patients with B-cell malignancies [3]: sensitive

CC[C@H](C(=O)N1CCCC[C@H]1C(=O)O[C@H](CCc1ccc(OC)c(OC)c1)c1cccc(OCC(=O)NCC(CNC(=O)COc2cccc([C@@H](CCc3ccc(OC)c(OC)c3)OC(=O)[C@@H]3CCCCN3C(=O)[C@@H](CC)c3cc(OC)c(OC)c(OC)c3)c2)CN(C)C)c1)c1cc(OC)c(OC)c(OC)c1 [AP2018]
peripheral capillary oxygen saturation (SpO2) levels [1]: statistically significant increases

COc1ccc(C2=N[C@@H](c3ccc(Cl)cc3)[C@@H](c3ccc(Cl)cc3)N2C(=O)N2CCNC(=O)C2)c(OC(C)C)c1 [Nutlin-3A]
expression of SASP factors and senescent cell markers MMP3, MMP13, PAI1, p21, IGFBP2, IL-1A, IL-1B in the aortic arch (RT-PCR) ([4]; 25 mg/kg intraperitoneally, timepoint 1 (week 4), after one treatment cycle): reduced expression of several SASP factors and senescent cell markers | expression of SASP factors and senescent cell markers in the aortic arch (RT-PCR) ([4]; 25 mg/kg intraperitoneally, timepoint 2 (week 8), multiple treatment cycles): reduced expression of most markers | reduction of the surface area covered by plaques in the descending aorta (Sudan IV) ([4]; 25 mg/kg intraperitoneally, timepoint 3 (week 12), FIG. 9): about 45% | body fat composition of mice fed the high fat diet (MRI) ([4]; timepoint 3 (week 12)): decreased | mass of mice fed the high fat diet ([4]; timepoint 3 (week 12)): decreased | lymphocyte counts versus vehicle treated mice ([4]; timepoint 3 (week 12), Hemavet): equivalent | platelet counts versus vehicle treated mice ([4]; timepoint 3 (week 12), Hemavet): equivalent | peripheral capillary oxygen saturation (SpO2) levels [1]: statistically significant increases | presence of senescent cells in the joint ([5]; 5.8 μg per operated knee intra-articular, 4 weeks post-surgery): cleared senescent cells from the joint | weight bearing test: weight placed on the operated limb versus the contralateral unoperated limb ([5]; 4 weeks post-surgery, effect = favoring the unoperated hind limb, FIG. 6A): abrogated this effect | histopathology of joint tissue: destruction of the proteoglycan layer ([5]; effect = proteoglycan layer destroyed by ACL surgery, FIGS. 6B-6D): completely abrogated this effect | expression of p16 in the tissue (mRNA, qRT-PCR) ([5]; operated joints, 5.8 μg per operated knee intra-articular q.o.d. for 2 weeks, 4 weeks post-surgery, FIG. 5A): reduced the expression back to below the level of the controls | expression of IL-6 in the tissue (mRNA, qRT-PCR) ([5]; operated joints, 5.8 μg per operated knee intra-articular q.o.d. for 2 weeks, 4 weeks post-surgery, FIG. 5B): reduced the expression back to below the level of the controls | expression of MMP13 in the tissue (mRNA, qRT-PCR) ([5]; operated joints, 5.8 μg per operated knee intra-articular q.o.d. for 2 weeks, 4 weeks post-surgery, FIG. 5C): reduced the expression back to below the level of the controls

Nc1nc(O)c2ncn(COC(CO)CO)c2n1 [ganciclovir]
peripheral capillary oxygen saturation (SpO2) levels [1]: statistically significant increases
